Species on record: Rattus norvegicus
Experiment: DrugMatrix - Regimen: Daily Repeat
Format: toxicity, organism-based, Sprague-Dawley
Parameters: regimen Daily Repeat, gender Male, age 6-8 weeks
Details: in vivo, vehicle 100 % SALINE; for ABSOLUTE BASOPHIL / ABSOLUTE EOSINOPHIL / ABSOLUTE LYMPHOCYTE / ABSOLUTE MONOCYTE / BASOPHIL / EOSINOPHIL / ERYTHROCYTE COUNT / HEMATOCRIT / HEMOGLOBIN / LEUKOCYTE COUNT / LYMPHOCYTE / MEAN CORPUSCULAR HEMOGLOBIN / MEAN CORPUSCULAR HEMOGLOBIN CONCENTRATION / MEAN CORPUSCULAR VOLUME / MONOCYTE / NEUTROPHIL / NUCLEATED RED BLOOD CELLS / PLATELET COUNT: tissue Blood
[1] = ip, 0.5 mg/kg, […], tissue Plasma, route intraperitoneal, dose level High, time 28 day
[2] = iv, 0 mg/kg, 72 h, dose level Control, time 3 day
[3] = iv, 0 mg/kg, 72 h, tissue Plasma, dose level Control, time 3 day
[4] = iv, 0 mg/kg, 120 h, dose level Control, time 5 day
[5] = iv, 0 mg/kg, 120 h, tissue Plasma, dose level Control, time 5 day

CISPLATIN
ALKALINE PHOSPHATASE [1]: 134.22 u/L | ASPARTATE AMINOTRANSFERASE [1]: 78.67 u/L | BLOOD UREA NITROGEN [1]: 25 mg/dL | CHOLESTEROL [1]: 63.11 mg/dL | CREATININE [1]: 0.82 mg/dL | GLUCOSE [1]: 108.67 mg/dL | LACTATE DEHYDROGENASE [1]: 80.89 u/L | LIPASE [1]: 18.22 u/L | PHOSPHORUS [1]: 9.11 mg/dL | POTASSIUM [1]: 6.18 MEQ/L | SODIUM [1]: 151.78 MEQ/L | TOTAL BILIRUBIN [1]: 0.29 mg/dL | URIC ACID [1]: 1.11 mg/dL | ABSOLUTE BASOPHIL [2]: 0 CELLS/uL | ABSOLUTE EOSINOPHIL [2]: 0 CELLS/uL | ABSOLUTE LYMPHOCYTE [2]: 7026.17 CELLS/uL | ABSOLUTE MONOCYTE [2]: 44.33 CELLS/uL | BASOPHIL [2]: 0% | EOSINOPHIL [2]: 0% | ERYTHROCYTE COUNT [2]: 5.49 x10E6/uL | HEMATOCRIT [2]: 33.67% | HEMOGLOBIN [2]: 13.17 G/DL | LEUKOCYTE COUNT [2]: 7.45 x10E3/uL | LYMPHOCYTE [2]: 94% | MEAN CORPUSCULAR HEMOGLOBIN [2]: 24.03 pg | MEAN CORPUSCULAR HEMOGLOBIN CONCENTRATION [2]: 39.15 G/DL | MEAN CORPUSCULAR VOLUME [2]: 61.4 fL | MONOCYTE [2]: 0.67% | NEUTROPHIL [2]: 5.33% | NUCLEATED RED BLOOD CELLS [2]: 0.17 /100WBC | PLATELET COUNT [2]: 1062.5 x10E3/uL | ALANINE AMINOTRANSFERASE [3]: 53.17 u/L | ALKALINE PHOSPHATASE [3]: 339.83 u/L | ASPARTATE AMINOTRANSFERASE [3]: 83.33 u/L | BLOOD UREA NITROGEN [3]: 16 mg/dL | CARBON DIOXIDE [3]: 32.5 mmol/L | CHLORIDE [3]: 98 MEQ/L | CHOLESTEROL [3]: 74.67 mg/dL | CREATININE [3]: 0.2 mg/dL | GLUCOSE [3]: 128.67 mg/dL | LACTATE DEHYDROGENASE [3]: 110.33 u/L | LIPASE [3]: 9 u/L | PHOSPHORUS [3]: 11.73 mg/dL | POTASSIUM [3]: 6.34 MEQ/L | TOTAL BILIRUBIN [3]: 0.18 mg/dL | URIC ACID [3]: 1.28 mg/dL | ABSOLUTE BASOPHIL [4]: 0 CELLS/uL | ABSOLUTE EOSINOPHIL [4]: 26.67 CELLS/uL | ABSOLUTE LYMPHOCYTE [4]: 8334.17 CELLS/uL | ABSOLUTE MONOCYTE [4]: 29.5 CELLS/uL | BASOPHIL [4]: 0% | EOSINOPHIL [4]: 0.33% | ERYTHROCYTE COUNT [4]: 5.44 x10E6/uL | HEMATOCRIT [4]: 33.77% | HEMOGLOBIN [4]: 13.05 G/DL | LEUKOCYTE COUNT [4]: 8.98 x10E3/uL | LYMPHOCYTE [4]: 92.33% | MEAN CORPUSCULAR HEMOGLOBIN [4]: 24 pg | MEAN CORPUSCULAR HEMOGLOBIN CONCENTRATION [4]: 38.67 G/DL | MEAN CORPUSCULAR VOLUME [4]: 62.05 fL | MONOCYTE [4]: 0.33% | NEUTROPHIL [4]: 7% | NUCLEATED RED BLOOD CELLS [4]: 0 /100WBC | PLATELET COUNT [4]: 987 x10E3/uL | ALANINE AMINOTRANSFERASE [5]: 43.5 u/L | ALKALINE PHOSPHATASE [5]: 310.17 u/L | ASPARTATE AMINOTRANSFERASE [5]: 76.67 u/L | BLOOD UREA NITROGEN [5]: 17 mg/dL

From ChEMBL document CHEMBL3885881, “DrugMatrix”
